Our source for the Activity values is ChEMBL document CHEMBL1154479, “Newer GABA derivatives for the treatment of epilepsy including febrile seizures: a bioisosteric approach” (Eur J Med Chem, 2008).

The source made the active and inactive calls. The rule behind the calls is not given here.

The subject of series [1] is Mus musculus. Kind of series: Anticonvulsant activity in Swiss albino mouse assessed as inhibition of subcutaneous pentylenetetrazole-induced seizures at 300 mg/kg, ip administered 30 mins before PTZ challenge measured after 0.5 hrs post PTZ challenge. It counts as functional, organism-based. The arrangement: dose 300 mg/kg.
The subject of series [2] is Mus musculus. Put plainly: Anticonvulsant activity in Swiss albino mouse assessed as inhibition of subcutaneous pentylenetetrazole-induced seizures at 300 mg/kg, ip administered 30 mins before PTZ challenge measured after 4 hrs post PTZ challenge. The arrangement: dose 300 mg/kg. It counts as functional, organism-based.
In series [3] the test system is Mus musculus. Put plainly: Anticonvulsant activity in ip dosed Swiss albino mouse assessed as inhibition of subcutaneous strychnine-induced seizures administered 30 mins before STY challenge measured after 0.5 hrs post STY challenge. Type of series: functional.
Series [4] relates to Rattus norvegicus. Kind of series: Anticonvulsant activity in Wistar rat assessed as protection against hyperthermia-induced seizures at 100 mg/kg, ip relative to control. Type of series: functional. The conditions noted are these: route intraperitoneal.
Series [5] concerns Mus musculus. Kind of series: Anticonvulsant activity in Swiss albino mouse assessed as inhibition of maximal electroshock-induced seizures at 300 mg/kg, ip administered 30 mins before electroshock measured after 0.5 hrs post electroshock. The arrangement: dose 300 mg/kg. It counts as functional, organism-based.
For series [6], the system named is Mus musculus. Put plainly: Neurotoxicity in Swiss albino mouse assessed as inability of animal to maintain equilibrium on the rod for at least 1 min at 300 mg/kg, ip after 4 hrs by rotarod test. Type of series: toxicity, organism-based. The arrangement: dose 300 mg/kg, route intraperitoneal. The note with it: in vivo. (In general: The rotarod test checks motor coordination on a turning rod.)

Series [7] has as its system Mus musculus. Put plainly: Anticonvulsant activity in ip dosed Swiss albino mouse assessed as inhibition of subcutaneous strychnine-induced seizures administered 30 mins before STY challenge measured after 4 hrs post STY challenge. Type of series: functional.
The test system of series [8] is Mus musculus. Put plainly: Neurotoxicity in Swiss albino mouse assessed as inability of animal to maintain equilibrium on the rod for at least 1 min at 300 mg/kg, ip after 0.5 hrs by rotarod test. It counts as toxicity, organism-based. The arrangement: dose 300 mg/kg, route intraperitoneal. The conditions noted are these: in vivo.
Series [9] concerns Mus musculus. Put plainly: Anticonvulsant activity in Swiss albino mouse assessed as inhibition of subcutaneous strychnine-induced seizures at 300 mg/kg, ip administered 30 mins before STY challenge measured after 0.5 hrs post STY challenge. Type of series: functional, organism-based. The arrangement: dose 300 mg/kg.
For series [10], the system named is Mus musculus. Kind of series: Anticonvulsant activity in ip dosed Swiss albino mouse assessed as inhibition of subcutaneous pentylenetetrazole-induced seizures administered 30 mins before PTZ challenge measured after 0.5 hrs post PTZ challenge. Type of series: functional.
In series [11] the test system is Mus musculus. Kind of series: Anticonvulsant activity in Swiss albino mouse assessed as inhibition of subcutaneous strychnine-induced seizures at 300 mg/kg, ip administered 30 mins before STY challenge measured after 4 hrs post STY challenge. It counts as functional, organism-based. The arrangement: dose 300 mg/kg.
Series [12] deals with Mus musculus. Kind of series: Anticonvulsant activity in ip dosed Swiss albino mouse assessed as inhibition of subcutaneous picrotoxin-induced seizures administered 30 mins before PIC challenge measured after 4 hrs post PIC challenge. It counts as functional.
The test system of series [13] is Mus musculus. Kind of series: Anticonvulsant activity in ip dosed Swiss albino mouse assessed as inhibition of subcutaneous picrotoxin-induced seizures administered 30 mins before PIC challenge measured after 0.5 hrs post PIC challenge. It counts as functional.
In series [14] the test system is Mus musculus. Kind of series: Neurotoxicity in ip dosed Swiss albino mouse assessed as inability of animal to maintain equilibrium on the rod for at least 1 min after 4 hrs by rotarod test. It counts as toxicity, organism-based. The note with it: in vivo.
The test system of series [15] is Mus musculus. Put plainly: Anticonvulsant activity in Swiss albino mouse assessed as inhibition of subcutaneous picrotoxin-induced seizures at 300 mg/kg, ip administered 30 mins before PIC challenge measured after 4 hrs post PIC challenge. Type of series: functional, organism-based. The arrangement: dose 300 mg/kg.
Series [16] deals with Mus musculus. Kind of series: Anticonvulsant activity in Swiss albino mouse assessed as inhibition of subcutaneous picrotoxin-induced seizures at 300 mg/kg, ip administered 30 mins before PIC challenge measured after 0.5 hrs post PIC challenge. It counts as functional, organism-based. The arrangement: dose 300 mg/kg.
The subject of series [17] is Mus musculus. Put plainly: Anticonvulsant activity in ip dosed Swiss albino mouse assessed as inhibition of maximal electroshock-induced seizures administered 30 mins before electroshock measured after 0.5 hrs post electroshock. It counts as functional. For orientation: The maximal electroshock test induces tonic seizures with an electrical stimulus.
Series [18] deals with Mus musculus. Put plainly: Neurotoxicity in ip dosed Swiss albino mouse assessed as inability of animal to maintain equilibrium on the rod for at least 1 min after 0.5 hrs by rotarod test. Type of series: toxicity, organism-based. The conditions noted are these: in vivo.

`CN(C)c1ccc(/C=N/NC(=S)NCCCC(=O)O)cc1`: the outcome in [1], in series [2] and in series [5] was inactive. Moreover, the Activity was 300 mg/kg in series [3]; 88% in series [4]; “Non-toxic” in series [6]; 300 mg/kg in series [7]; “Non-toxic” in [8].
On to `C/C(=N\NC(=S)NCCCC(=O)O)c1ccccc1`, for which the result in series [9], in series [2], in series [5] and in series [11] was inactive. Moreover, the Activity was 90% in [4]; 300 mg/kg in series [10]; “Non-toxic” in [6]; 100 mg/kg in [12]; “Non-toxic” in series [8]; 100 mg/kg in series [13].
For `NNC(=S)NCCCC(=O)O`, the outcome in [9], in series [1], in series [2], in [15], in series [16] and in [11] was inactive. In addition, the Activity in series [14] turned out to be 300 mg/kg; in [17], 300 mg/kg; in series [4], 27%; in series [18] it was 300 mg/kg.
Take `O=C1NC(=O)C(c2ccccc2)(c2ccccc2)N1` [PHENYTOIN]: the result in series [9], in series [1], in series [2], in series [15], in series [16] and in series [11] was inactive. Further, the Activity in [14] amounted to 100 mg/kg; in [17], 30 mg/kg; in series [18], 100 mg/kg.
`O=C(O)CCCNC(=S)N/N=C/c1ccc([N+](=O)[O-])cc1`: the outcome in [9], in [1], in series [2], in [5] and in [11] was inactive. Also, the Activity is 85% in [4]; “Non-toxic” in [6]; 300 mg/kg in series [12]; “Non-toxic” in series [8]; 300 mg/kg in [13].
As for `Nc1nnc(-c2cccc(Cl)c2Cl)c(N)n1` [LAMOTRIGINE], the result in [9], in series [2], in [15], in series [16] and in [11] was inactive. The Activity amounted to 100 mg/kg in series [14]; 30 mg/kg in [17]; 51% in series [4]; 100 mg/kg in [18]; 30 mg/kg in [10].
Consider `CCC1(C)CC(=O)NC1=O` (centres undefined) [ETHOSUXIMIDE], for which the outcome in [9], in [2], in series [15], in series [16], in series [5] and in series [11] was inactive. The Activity in [10] is 300 mg/kg; in series [6], “Non-toxic”; in series [8], “Non-toxic”.
With `O=C(O)CCCNC(=S)N/N=C1\C(=O)Nc2ccccc21`, the outcome in series [9], in series [2], in series [5] and in [11] was inactive. The Activity in series [4] is 92%; in series [10], 30 mg/kg; in series [6], “Non-toxic”; in [12], 300 mg/kg; in [8], “Non-toxic”; in series [13], 300 mg/kg.
Turning to `C/C(=N\NC(=S)NCCCC(=O)O)c1cccc(N)c1`, the result in [9], in [1], in [2], in series [5] and in series [11] was inactive. Moreover, the Activity is 27% in [4]; “Non-toxic” in [6]; 300 mg/kg in series [12]; “Non-toxic” in [8]; 300 mg/kg in series [13].
For the compound `O=C(O)CCCNC(=S)NN=C1CCCCC1`, the outcome in [9], in [1], in series [2], in series [5] and in [11] was inactive. Moreover, the Activity is 78% in series [4]; “Non-toxic” in [6]; 300 mg/kg in [12]; “Non-toxic” in series [8]; 300 mg/kg in series [13].
Turning to `O=C(O)CCCNC(=S)N/N=C(\c1ccccc1)c1ccc(Br)cc1`, the result in series [1], in series [2], in series [5] and in series [11] was inactive. Moreover, the Activity in series [3] was 100 mg/kg; in series [4] it was 19%; in [18], 300 mg/kg; in series [6] it was “Non-toxic”.
As to `O=C(O)CCCNC(=S)NN=C1CCCC1`, the outcome in series [9], in series [2], in series [15], in series [16], in series [5] and in [11] was inactive. Further, the Activity was 71% in series [4], 100 mg/kg in series [10], “Non-toxic” in series [6] and “Non-toxic” in series [8].
Take `O=C(O)CCCNC(=S)NN=C(c1ccccc1)c1ccccc1`: the outcome in [9], in series [1], in series [2] and in series [11] was inactive. Besides, the Activity is 300 mg/kg in [17], 83% in series [4], “Non-toxic” in series [6] and “Non-toxic” in series [8].
Take `C/C(=N\NC(=S)NCCCC(=O)O)c1ccc(C)cc1`: the outcome in series [9], in [1], in series [2], in series [15], in series [16] and in [5] was inactive. In [11], the outcome was inactive. For the same compound, the figures for the Activity in series [4], in series [6] and in [8] were 80%, “Non-toxic” and “Non-toxic”, respectively.
With `O=C(O)CCCNC(=S)NN=C(Cc1ccccc1)Cc1ccccc1`, the result in [9], in series [1], in [2], in [15], in series [5] and in series [11] was inactive. Moreover, the Activity in series [14] is 300 mg/kg; in [4] it was 73%; in series [8], “Non-toxic”.
`O=C(O)CCCNC(=S)N/N=C/c1ccccc1O`: the result in [2], in series [5] and in series [11] was inactive. Also, the Activity in series [3] was 100 mg/kg; in series [4], 92%; in [10], 100 mg/kg; in series [6], “Non-toxic”; in series [8] it was “Non-toxic”.
As to `C/C(=N\NC(=S)NCCCC(=O)O)c1ccc([N+](=O)[O-])cc1`, the result in [9], in series [1], in series [2], in series [15], in series [16] and in series [5] was inactive. Moreover, in series [11], the result was inactive. The Activity in series [14] stood at 100 mg/kg; in series [4], 46%; in [18] it was 100 mg/kg.
